Test [1] concerns infant foreskin fibroblasts. As to the kind of experiment: Fibroblast chemotaxis in modified Boyden chambers (incl. checkerboard and deactivation studies). It is filed as cell-based, human. The note with it: for fibroblast chemotaxis / migration (in words): peptide in lower compartment of modified Boyden chamber; for Mean Fibroblasts per 20 OIF + SEM: Experiment 1, lower compartment: TGF-β1 50 pg/ml, peptide 368-374 1.4 × 10^-5 M, peptide 364-378 6.7 × 10^-7 M, fibronectin 20 μg/ml. The protocol:
Target cells used in in vitro chemotaxis assays were infant foreskin fibroblasts obtained by establishing monolayer cultures from explants of tissue. Cells were maintained in Eagle's minimum essential medium (MEM) supplemented with non-essential amino acids, antibiotics, 50 ug/ml ascorbic acid, and 9% fetal calf serum (FCS). Cells were passaged by trypsinization every 3-5 days.
Infant foreskin fibroblasts were harvested from monolayer culture by gentle trypsinization, washed twice in serum-free Eagles's MEM and adjusted to a final concentration of 250,000 cells/ml. The cell suspension (0.4 ml) was added to the upper compartments of blind well modified Boyden chemotaxis chambers. The peptides of the invention being assayed for chemotactic activity were solubilized in glycylglycine (0.015M) buffered NaCl (0.14M), pH 7.2, hereinafter referred to as GGBS, and diluted 50% with serum-free MEM. Test substances were added to the lower compartment of the chemotaxis chambers. Gelatin-treated polycarbonate filters (8 micron pore size) were interposed between the lowest compartment and the upper cell compartment. Loaded chambers were incubated at 37° C. in a humidified atmosphere containing 5% CO2 for 150 minutes. After incubation, the chambers were disassembled, the filters removed, stained with hematoxylin, and mounted on glass cover slips. Fibroblast chemotaxis was quantitated by counting the number of fibroblasts in 20 oil immersion fields (OIF) that migrated and adhered to the lower surface of each filter. Samples were tested in quadruplicate and results are expressed as mean number of fibroblasts per 20 OIF±standard error of the mean (SEM). Chemotaxis neutralization studies were performed by adding TGF-β1 or fibronectin to the upper cell compartment and testing for effects on fibroblast migration to the TGF-β peptides.
Zigmond-Hirsch checkerboard analysis (Zigmond & Hirsch, J. Exptl. Med. 137:387, 1972) was performed to determine whether the 7-mer peptide 368-374 (Val Tyr Tyr Val Gly Arg Lys) induced chemotaxis of fibroblasts, monocytes and neutrophils.
Deactivation studies were utilized to determine whether the peptides of the invention containing the 7-mer peptide amino acid sequence induced chemotaxis via cellular receptors and mechanisms utilized by intact TGF-β.

Test [2] concerns human peripheral blood monocytes. In words: Monocyte chemotaxis in modified Boyden chambers. In kind it is cell-based. To be noted: peptide in lower compartment of modified Boyden chamber. The text has this:
(§1) Human peripheral blood neutrophils and monocytes, isolated from whole blood using standard techniques may also be used in the chemotaxis assays, in a manner similar to infant foreskin fibroblasts, to measure the chemotactic activity of the peptides towards inflammatory cells. Such cells may also be maintained in supplemented MEM as above, to which 5-10% FCS may be added. When using neutrophils and monocytes, instead of fibroblasts, the polycarbonate filters used in the modified Boyden chambers had pore sizes of 2 and 3 microns, respectively. As above, all assays were carried out in quadruplicate.
The following 7-mer peptides (peptides 368-374, corresponding to amino acids 368-374 of human TGF-β1): VYYVGRK (SEQ ID NO. 1), LYYIGKT (SEQ ID NO. 2), LYYVGRT (SEQ ID NO. 3), IYYVGRN (SEQ ID NO. 4) and IYYVGRT (SEQ ID NO. 5) were synthesized by the Merrifield technique, purified by HPLC, and tested at different concentrations in the same assay for their ability to stimulate chemotaxis of human peripheral blood monocytes in vitro modified Boyden chambers.

Test [3] relates to Human peripheral blood neutrophils. In words: Neutrophil chemotaxis in modified Boyden chambers. In kind it is cell-based. The note with it: peptide in lower compartment of modified Boyden chamber.
From the text: as §1

For test [4], the system named is infant foreskin fibroblasts. As to the kind of experiment: Collagen production by fibroblasts (modified Peterofsky-Diegelman assay). It is filed as cell-based, human. To be noted: [3H]proline incorporation into collagenase-sensitive protein. The protocol: The peptides of the invention were also found to stimulate collagen production by fibroblasts. Collagen production by fibroblasts in response to the peptides of the present invention was measured utilizing a modified Peterofsky-Diegelman assay. The assay is used to determine whether the peptides of the invention stimulate or inhibit collagen production by fibroblasts.
Low passage (4-12 subpassages) infant foreskin fibroblasts were plated out at a density of 10^5 cells/well in Falcon 3008 multiwell plates in complete maintenance medium containing 10% FCS. After cells reached confluency (72 hr), the medium was changed daily for 3 days, each time being replaced with serum-free maintenance medium containing fresh ascorbic acid. Samples (50 μl) were added to triplicate wells containing 450 μl serum-free MEM supplemented with fresh ascorbic acid and [^3 H]-proline (sp. act. 20 Ci/mmole), but no non-essential amino acids. After an additional 24 hr of culture, supernatants were reacted with protease-free bacterial collagenase to digest all collagen. Similar aliquots of unreacted supernatants and bacterial collagenase-treated supernatants were precipitated with cold 10% trichloroacetic acid (TCA) and were centrifuged for 5 minutes in a Beckman microfuge. Aliquots of the supernatants, after TCA precipitated proteins were pelleted, were placed in vials containing Hydrofluor and then were counted in a scintillation counter. CPM from TCA precipitated supernatants not reacted with bacterial collagenase were subtracted from each culture. The resulting CPM was a reflection of the collagen produced by that culture.
A modified Peterofsky-Diegelmann assay was used to screen peptide samples for their ability to stimulate or inhibit collagen production. Low passage (4-12 subpassages) infant foreskin fibroblast were plated out at a density of 10^5 cells/well of Falcon 3008 multiwell plates in complete maintenance medium containing 10% FCS. After cells reached confluency (72 hr) the medium was changed daily for 3 days, each time being replaced with serum-free maintenance medium containing fresh ascorbic acid. Samples ([…]) were added to triplicate wells containing […] serum free MEM supplemented with fresh ascorbic acid and [^3 H]-proline (sp. act. 20 Ci/mmole), but no non-essential amino acids. After an additional 24 hours of culture, supernatants were reacted with protease-free bacterial collagenase to digest all collagen. Similar aliquots of unreacted supernatants and bacterial collagenase-treated supernatants were precipitated with cold 10% trichloroacetic acid (TCA) and were centrifuged for 5 minutes in a Beckman microfuge. Aliquots of the supernatants, after TCA precipitated proteins were pelleted, were placed in vials containing Hydrofluor and then were counted in a scintillation counter. CPM from TCA precipitated supernatants not reacted with bacterial collagenase were subtracted from each culture. The resulting CPM was a reflection of the collagen produced by that culture.
Collagen production was measured following administration of the various 7-mer peptides 368-374 (SEQ ID NOs. 1-5) to fibroblasts. Peptides […] (SEQ ID NO. 1), LYYIGKT (SEQ ID NO. 2), LYYVGRT (SEQ ID NO. 3), IYYVGRN (SEQ ID NO. 4) and IYYVGRT (SEQ ID NO. 5) were synthesized by the Merrifield technique, purified by HPLC, and tested at different concentrations in the same assay for their ability to stimulate production of collagen in confluent cultures of infant foreskin fibroblasts. Collagen production was measured by incorporation of [^3 H]proline into collagenase-sensitive protein. All samples were tested in triplicate, and values represent the mean of triplicate determinations. Data are expressed as "% stimulation" of collagen production relative to control production in cultures with plain culture medium only added. […]

[5] abbreviates: Media added to upper compartment.
The mark [6] stands for this setting: TGF-β1 (50 pg/ml) added to upper compartment.

Take “296-322: peptide derived from the N-terminal half of TGF-β1, residues 296-322 (VRQLYIDFRKDLGWKWIHEPKGYHANF; printed: Val Arg Gln Leu Tyr Ile Asp Phe Arg Lys Asp Leu Gly Trp Lys Trp Ile His Glu Pro Lys Gly Tyr His Ala Asn Phe) [Peptide 296-322]”: in test [1], the “fibroblast chemotaxis / migration (in words)” value is “none of the peptides derived from the N-terminal half of TGF-β1 (peptides 280-293, 296-322 and 328-354) were able to induce migration”. For the same substance, in test [2], the “monocyte chemotaxis / migration (in words)” value is “none of the peptides derived from the N-terminal half of TGF-β1 (peptides 280-293, 296-322 and 328-354) were able to induce migration”. Besides, in test [3], the “neutrophil chemotaxis / migration (in words)” value was “none of the peptides derived from the N-terminal half of TGF-β1 (peptides 280-293, 296-322 and 328-354) were able to induce migration”.
As to IYYVGRN [7-mer peptide 368-374 homolog], the “fibroblast chemotaxis / migration (in words)” value in test [1] is given as “induced fibroblast chemotaxis at all of the concentration tested”. For the same substance, in test [2], the “monocyte chemotaxis / migration (in words)” value is reported as “induced monocyte chemotaxis at all of the concentrations tested”. Also, the “collagen production by fibroblasts (in words)” value (from here on “collagen production”) in test [4] is reported as “stimulated collagen production to some degree”.
For the substance Fibronectin [reference compound], the “Mean Fibroblasts per 20 OIF + SEM” value in test [1] (setting [5]) worked out at 74 ± 2 Fibroblasts per 20 OIF; in test [1] (setting [6]), 71 ± 6 Fibroblasts per 20 OIF.
On to IYYVGRT [7-mer peptide 368-374 homolog], for which the “fibroblast chemotaxis / migration (in words)” value in test [1] is “induced fibroblast chemotaxis at all of the concentration tested”. Also, the “monocyte chemotaxis / migration (in words)” value in test [2] was “induced monocyte chemotaxis at all of the concentrations tested”. Further, in test [4], the “collagen production” value is recorded as “stimulated collagen production to some degree”.
As for “280-293: peptide derived from the N-terminal half of TGF-β1, residues 280-293 (ALDTNYCFSSTEKN; printed: Ala Leu Asp Thr Asn Tyr Cys Phe Ser Ser Thr Glu Lys Asn) [Peptide 280-293]”, the “fibroblast chemotaxis / migration (in words)” value in test [1] was “none of the peptides derived from the N-terminal half of TGF-β1 (peptides 280-293, 296-322 and 328-354) were able to induce migration”. Besides, in test [2], the “monocyte chemotaxis / migration (in words)” value was “none of the peptides derived from the N-terminal half of TGF-β1 (peptides 280-293, 296-322 and 328-354) were able to induce migration”. Moreover, the “neutrophil chemotaxis / migration (in words)” value in test [3] is “none of the peptides derived from the N-terminal half of TGF-β1 (peptides 280-293, 296-322 and 328-354) were able to induce migration”.
Turning to “TGF-β1: transforming growth factor β1, 50 pg/ml, chemoattractant control and deactivating agent [reference compound]”, the “Mean Fibroblasts per 20 OIF + SEM” value was determined as 7 ± 1 Fibroblasts per 20 OIF in test [1] (setting [5]) and 21 ± 2 Fibroblasts per 20 OIF in test [1] (setting [6]).
For “VPQALEPLPIVYYVGRKPKVEQLSN (VPQALEPLPIVYYVGRKPKVEQLSN) [Peptide 358-382]”, the “fibroblast chemotaxis / migration (in words)” value in test [1] is “induced migration of fibroblasts, monocytes and neutrophils in a dose dependent fashion”. Besides, the “monocyte chemotaxis / migration (in words)” value in test [2] was “induced migration of fibroblasts, monocytes and neutrophils in a dose dependent fashion”. The “neutrophil chemotaxis / migration (in words)” value in test [3] was “induced migration of fibroblasts, monocytes and neutrophils in a dose dependent fashion”.
As to “328-354: peptide derived from the N-terminal half of TGF-β1, residues 328-354 (PYIWSLDTQYSKVLALYNQHNPGASAA; printed: Pro Tyr Ile Trp Ser Leu Asp Thr Gln Tyr Ser Lys Val Leu Ala Leu Tyr Asn Gln His Asn Pro Gly Ala Ser Ala Ala) [Peptide 328-354]”, the “fibroblast chemotaxis / migration (in words)” value in test [1] was “none of the peptides derived from the N-terminal half of TGF-β1 (peptides 280-293, 296-322 and 328-354) were able to induce migration”. Also, the “monocyte chemotaxis / migration (in words)” value in test [2] was “none of the peptides derived from the N-terminal half of TGF-β1 (peptides 280-293, 296-322 and 328-354) were able to induce migration”. Further, in test [3], the “neutrophil chemotaxis / migration (in words)” value was “none of the peptides derived from the N-terminal half of TGF-β1 (peptides 280-293, 296-322 and 328-354) were able to induce migration”.
As to LYYVGRT [7-mer peptide 368-374 homolog], the “fibroblast chemotaxis / migration (in words)” value in test [1] is on record as “induced fibroblast chemotaxis at all of the concentration tested”. The “monocyte chemotaxis / migration (in words)” value in test [2] was “induced monocyte chemotaxis at all of the concentrations tested”. Moreover, the “collagen production” value in test [4] is on record as “stimulated collagen production to some degree”.
With “PIVYYVGRKPKVEQLSNMIVRS (PIVYYVGRKPKVEQLSNMIVRS) [Peptide 366-387]”, the “fibroblast chemotaxis / migration (in words)” value in test [1] was “induced migration of fibroblasts, monocytes and neutrophils in a dose dependent fashion”. In addition, the “monocyte chemotaxis / migration (in words)” value in test [2] is “induced migration of fibroblasts, monocytes and neutrophils in a dose dependent fashion”. In addition, in test [3], the “neutrophil chemotaxis / migration (in words)” value is “induced migration of fibroblasts, monocytes and neutrophils in a dose dependent fashion”.
With VSQDLEPLTILYYIGKTPKIEQLSNMIVKSC, in test [4], the “collagen production” value is on record as “stimulated collagen production”.

The record behind these values is US5824647A, “Chemotactic wound healing peptides” (priority 1995, dated 1998).
